Values joined by “and” are separate entries in the source; they are usually repeats but may differ in a detail not shown here. Equal values may be shown once.
Columns and labels:
Oral bioavailability = format: in vivo; conditions: normal laboratory dogs
[1] = test system: primary canine DLBCL cells; test: MTS cell viability assay, primary canine DLBCL samples; format: cell-based; conditions: Canis lupus familiaris, primary sample #1, 72 hours, read-out: IC50, DLBCL#1
Method: Cryopreserved tumor cells obtained from sterile lymph node biopsy samples from dogs with diffuse large B cell lymphoma (DLBCL) were cultured with 100 ng/mL of megaCD40L (Enzo Life Science, Plymouth Meeting, PA) as previously described, [27]. The human T-cell leukemia cell line, Jurkat, was from the American Type Culture Collection (ATCC, Manassas, VA) and cultured in RPMI1640 medium (Gibco/BRL, Grand Island, NY) containing 10% fetal bovine serum (FBS; Atlas Biologicals, Fort Collins, CO), 2-mercaptoethanol (Gibco/BRL), HEPES, L-glutamine, sodium pyruvate (Mediatech Inc., Manassas, VA), non-essential amino acids (Sigma Aldrich, St. Louis, MO), and Primocin (Invivogen, San Diego, CA). The canine DLBCL cell line CLBL1 obtained from Dr. Barbara Rütgen (University of Vienna, Austria), [29] and human DLBCL cell lines OCI-Ly3 [30], [31] and OCI-Ly10 [32] obtained from Dr. Anne Novak (Mayo Clinic Cancer Center, Rochester, MN) were cultured in complete Iscove’s Modified Dulbecco’s medium (IMDM) containing 20% FBS, L-glutamine, and Primocin. All cells were maintained at 37°C in a humidified 5% CO2 atmosphere. The following additional canine tumor cell lines were used to evaluate response to SINE compounds: C2, mast cell tumor line provided by Dr. George Caughey, UCSF, San Francisco, CA [33]; OSA16, osteosarcoma cell line, provided by Dr. Jaime Modiano, UM, Minneapolis, MN [34]; and 323610-3, malignant melanoma cell line, provided by Dr. Michael Kent, UCD, Davis, CA [35]. All cell lines were cultured in complete RPMI media containing 10% FBS, antibiotic/antimycotic, HEPES, sodium pyruvate, nonessential amino acids and Glutamax (media supplements from Gibco).
(§1) Cell viability for lymphoid lines was determined by the MTS (3-(4, 5-dimethylthiazol-2-yl)-5-(3-carboxymethoxyphenyl)-2-(4-sulfophenyl)-2H-tetrazolium) assay using CellTiter 96® AQueous One Solution Cell Proliferation Assay Kit (Promega, Madison, WI). Briefly, for lymphoid cell lines, 5×10^4 cells (or 1×10^5 primary DLBCL cells) were cultured in 100 µL of complete medium in 96-well plates in the presence of SINE compounds. After 72 hours, 20 µL of MTS solution was added to each well and cells were incubated for another 4 hours before measuring absorbance at 490 nm using a Wallac Victor 1420 Multilabel Counter (Perkin Elmer, Waltham, MA). The IC50 of SINE was calculated using Prism 6 software (GraphPad Software, Inc., La Jolla, CA).

OCI-Ly3 DLBCL cells = test: MTS cell viability assay, OCI-Ly3; format: cell-based, human; conditions: Homo sapiens, OCI-Ly3, 72 hours, read-out: IC50 (± S.D.), OCI-Ly3
Method: Cryopreserved tumor cells obtained from sterile lymph node biopsy samples from dogs with diffuse large B cell lymphoma (DLBCL) were cultured with 100 ng/mL of megaCD40L (Enzo Life Science, Plymouth Meeting, PA) as previously described, [27]. The human T-cell leukemia cell line, Jurkat, was from the American Type Culture Collection (ATCC, Manassas, VA) and cultured in RPMI1640 medium (Gibco/BRL, Grand Island, NY) containing 10% fetal bovine serum (FBS; Atlas Biologicals, Fort Collins, CO), 2-mercaptoethanol (Gibco/BRL), HEPES, L-glutamine, sodium pyruvate (Mediatech Inc., Manassas, VA), non-essential amino acids (Sigma Aldrich, St. Louis, MO), and Primocin (Invivogen, San Diego, CA). […]
as §1, with “Briefly, for lymphoid cell lines, 5×10^4 cells (or 1×10^5 primary DLBCL cells) were cultured in 100 µL of complete medium in 96-well plates in the presence of SINE compounds.” left out

[2] = test system: dogs with spontaneous cancer (NHL, mast cell tumor, osteosarcoma); test: Phase I dose escalation study, tumor response; format: in vivo
Method: This study was a Phase I dose escalating, open label assessment of the safety and biologic activity of KPT-335 in client owned dogs with spontaneous malignancies. Assessment of clinical toxicities and tumor response was performed at each visit. Dogs were evaluated for hematologic and biochemical toxicities every 7 days with routine bloodwork. The initial dose of 1 mg/kg orally twice per week (Monday/Thursday or Tuesday/Friday) was based on previous data from normal laboratory dogs (data not shown) and dose escalation was set at 0.25 mg/kg increments in cohorts of 3 until dose limiting toxicity (DLT) was identified. The DLT was considered to be any grade 3 or 4 hematologic or non-hematologic toxicity based on the established VCOG-CTCAE criteria. […] Disease progression or signs and symptoms definitely related to disease were not considered adverse events (AEs). The maximum tolerated dose (MTD) was considered to be one dose below that at which DLT occurred.
(§2) Tumor assessments were completed prior to study entry, and days 7, 14, 21, and 28. For dogs that continued beyond 4 weeks, response assessments were performed every 2 weeks thereafter, or at the time of suspected tumor progression. Responses were assessed by the investigator according to pre-defined protocol criteria. The response in dogs with assessable disease was performed by clinical examination, ultrasonography, or thoracic radiography. Many lesions were not amenable for quantitative radiographic imaging, but were followed either by serial clinical examination (superficial lesions; palpable lymph nodes) or by ultrasonography (abdominal lymph nodes). Thoracic lesions were assessed by thoracic radiography.
(§3) The response in dogs with measurable disease was judged by the investigator on the basis of Response Evaluation Criteria for Peripheral Nodal Lymphoma in dogs (v1.0). A complete response (CR) was defined as disappearance of all disease on two measurements separated by a minimum period of 3 weeks. A partial response (PR) was defined as greater than 30% reduction in the sum of the longest diameter of the target lesions documented by two assessments separated by at least 3 weeks. An increase of >20% in the size of all measurable tumor areas as measured by the sum of longest diameters of the target lesions taken as reference the smallest sum since initiation of therapy, or the appearance of any new lesion(s) would qualify as progressive disease (PD). […] Dogs who had no evidence of tumor progression and who had not experienced any unacceptable toxicity were eligible for extended treatment cycles. Dose escalation from twice per week administration to three times per week administration in an individual dog was permitted if the dog was tolerating therapy.

dogs with NHL = test: Dose expansion study, tumor response; format: in vivo; conditions: 1.5 mg/kg Monday/Wednesday/Friday
Method: as §2, §3

O=C(/C=C\n1cnc(-c2cc(C(F)(F)F)cc(C(F)(F)F)c2)n1)NNc1ccccn1 [KPT-335]
oral bioavailability (Oral bioavailability): excellent oral bioavailability | IC50 [1]: 2 nM | IC50 (OCI-Ly3 DLBCL cells): 2.1 ± 1.3 nM | clinical benefit (CB: PR or SD >4 weeks), dogs with NHL [2]: 9/14 | clinical benefit, dogs with NHL [2]: 64% | duration of PR, individual dogs [2]: 71 days and 246 days | median TTP, responding dogs with NHL [2]: 66 days | median duration of treatment, dogs with NHL [2]: 10 weeks | range of duration of treatment, dogs with NHL [2]: 5–35 weeks | median duration of SD ([2]; 8 dogs with SD): 58.5 days | range of duration of SD ([2]; 8 dogs with SD): 28 to 84 days | TTP range, all dogs ([2]; 17 dogs): 14 to 246 days | dogs with PD in the first 4 weeks of therapy ([2]; 17 dogs): 7 | median TTP, all dogs ([2]; 17 dogs): 35 days | stable disease (SD), number of dogs with NHL ([2]; SD for greater than 28 days): 7 | stable disease (SD), number of dogs ([2]; all 17 dogs): 8 | dose at which biologic activity was observed ([2]; lowest dose level): 1 mg/kg | CB rate (dogs with NHL): 67% | TTP range, responders (dogs with NHL): 35 to 354 days | clinical benefit (CB), dogs (dogs with NHL): 4/6 | dogs with SD for longer than 28 days (dogs with NHL): 4 | median TTP, responders (dogs with NHL): 83 days | duration of PR, individual dogs (dogs with NHL; 1.5 mg/kg): 35 days and 354 days | TTP range, all dogs (dogs with NHL; 6 dogs with NHL): 13 to 354 days | median TTP, all dogs (dogs with NHL; 6 dogs with NHL): 55 days

— PMC3913620, “Preclinical Evaluation of the Novel, Orally Bioavailable Selective Inhibitor of Nuclear Export (SINE) KPT-335 in Spontaneous Canine Cancer: Results of a Phase I Study” (PLoS ONE, 2014)
